Measurements published in PubChem BioAssay AID1963972 (Molecular Pharmacology Branch, DTP, NCI, 2024).

System: 945468-187-T-J2-PDC spheroids viability
Test: Anticancer human tumor 945468-187-T-J2-PDC patient-derived rectal carcinoma cell line growth inhibition [PI3K]
Details: spheroids with HUVEC and MSC; for IC50: curve of first compound; for viability, T/C: stronger effect = lower value
Method in brief: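 We assembled tumor spheroids that included a stromal compartment of HUVEC and MSCs, then exposed them to targeted agents alone and together with PI3K pathway inhibitors. Concentration series descended by half-log from clinically achievable Cmax levels. Viability served as the endpoint.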
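Note: spheroids exposed to compounds for seven days before reading.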

SMILES: CC1(C)CCC(Nc2ncc(C(F)(F)F)c(-c3c[nH]c4c(P(C)(C)=O)c(C#N)ccc34)n2)CN1 (configuration not stated) + Cc1nc(NC(=O)N2CCCC2C(N)=O)sc1-c1ccnc(C(C)(C)C(F)(F)F)c1
- IC50 (second compound 0.0316 µM): 2650 nM
- IC50 (second compound 0.1 µM): 2140 nM
- IC50 (second compound 0.316 µM): > 10000 nM
- IC50 (second compound 1 µM): > 10000 nM
- IC50 (second compound 3.16 µM): 1980 nM
- IC50 (second compound 10 µM): 2320 nM
- viability, T/C (second compound 0.0316 µM, first compound 0.0316 µM): 95.8%
- viability, T/C (second compound 0.0316 µM, first compound 0.1 µM): 104%
- viability, T/C (second compound 0.0316 µM, first compound 0.316 µM): 78.4%
- viability, T/C (second compound 0.0316 µM, first compound 1 µM): 62.9%
- viability, T/C (second compound 0.0316 µM, first compound 3.16 µM): 47%
- viability, T/C (second compound 0.0316 µM, first compound 10 µM): 45.3%
- viability, T/C (second compound 0.1 µM, first compound 0.0316 µM): 87%
- viability, T/C (second compound 0.1 µM, first compound 0.1 µM): 85.4%
- viability, T/C (second compound 0.1 µM, first compound 0.316 µM): 93.2%
- viability, T/C (second compound 0.1 µM, first compound 1 µM): 55.2%
- viability, T/C (second compound 0.1 µM, first compound 3.16 µM): 53.1%
- viability, T/C (second compound 0.1 µM, first compound 10 µM): 41.6%
- viability, T/C (second compound 0.316 µM, first compound 0.0316 µM): 87.8%
- viability, T/C (second compound 0.316 µM, first compound 0.1 µM): 130%
- viability, T/C (second compound 0.316 µM, first compound 0.316 µM): 80.3%
- viability, T/C (second compound 0.316 µM, first compound 1 µM): 59.2%
- viability, T/C (second compound 0.316 µM, first compound 3.16 µM): 48.1%
- viability, T/C (second compound 0.316 µM, first compound 10 µM): 45.5%
- viability, T/C (second compound 1 µM, first compound 0.0316 µM): 89.8%
- viability, T/C (second compound 1 µM, first compound 0.1 µM): 99.3%
- viability, T/C (second compound 1 µM, first compound 0.316 µM): 91.4%
- viability, T/C (second compound 1 µM, first compound 1 µM): 53.8%
- viability, T/C (second compound 1 µM, first compound 3.16 µM): 48.5%
- viability, T/C (second compound 1 µM, first compound 10 µM): 55.3%
- viability, T/C (second compound 3.16 µM, first compound 0.0316 µM): 99.8%
- viability, T/C (second compound 3.16 µM, first compound 0.1 µM): 106%
- viability, T/C (second compound 3.16 µM, first compound 0.316 µM): 73.7%
- viability, T/C (second compound 3.16 µM, first compound 1 µM): 57%
- viability, T/C (second compound 3.16 µM, first compound 3.16 µM): 50.1%
- viability, T/C (second compound 3.16 µM, first compound 10 µM): 43.1%
- viability, T/C (second compound 10 µM, first compound 0.0316 µM): 81.8%
- viability, T/C (second compound 10 µM, first compound 0.1 µM): 77.5%
- viability, T/C (second compound 10 µM, first compound 0.316 µM): 48.9%
- viability, T/C (second compound 10 µM, first compound 1 µM): 53.7%
- viability, T/C (second compound 10 µM, first compound 3.16 µM): 60.2%
- viability, T/C (second compound 10 µM, first compound 10 µM): 39.4%
